These are literature values, as cited in patent US20220117919A1, “ENHANCED BIOAVAILABILITY OF N-(2,6-BIS(1-METHYLETHYL)PHENYL)-N'-((1-(4-(DIMETHYLAMINO)-PHENYL)CYCLOPENTYL)METHYL)UREA HYDROCHLORIDE” (The Regents of the University of Michigan, priority 2015, published 2022).

Structures are written as SMILES.

This data set deals with adrenocortical carcinoma (ACC). The note with it: cited from earlier work.

For the compound `Clc1ccc(C(c2ccccc2Cl)C(Cl)Cl)cc1` (centres unmarked) [mitotane], the “average delay of disease progression” value (ACC patients that derive a therapeutic benefit) is “five”. The “share of patients with increased progression-free survival” value (ACC patients) is “one-quarter to one-third”.
